Reference: patent US20190352268A1, “CANNABINOID RECEPTOR MEDIATING COMPOUNDS” (The USA, as represented by the Secretary, Department of …, priority 2015, published 2019)
Read-outs that look alike come from different tables or passages of the source.

Key:
recombinant human AMPK = experiment: Recombinant AMPK activity assay (Cyclex kit); format: biochemical
From the text: Guanides and biguanides, such as metformin, are effective as antidiabetic agents linked to their AMPK activating properties (Hardie et al., Chem Biol. 2012, […]; 1222-1236). Guanidine-containing analogs in certain embodiments were screened for activation of recombinant human AMPK, using an assay kit (Cyclex, Nagona, Japan), as illustrated in FIG. 8.
Activators of AMP-activated protein kinase (AMPK), such as guanidines of biguanides such as metformin are useful for the treatment of diabetes owing to their AMPK activating property (Hardie, et al., Chem & Biol 2012, 19(10); 1222-1236). Guanidine analogues of certain embodiments were screened for AMPK activation by using a recombinant AMPK activity assay.

liver fibrosis = details: Teixeira-Clerc, Nature Med 2006; cited from earlier work
DIO mice = experiment: Mice with diet-induced obesity (DIO), 14 days oral treatment; format: in vivo, mouse
Experimental: Data represent mean±SEM from 5-6 mice per group.*(P<0.05), indicate significant difference from […] diet control. ^# indicates significant treatment effect (P<0.05) relative to vehicle-treated HFD group.
Data represent mean±SEM from 5-6 mice per group. *(P<0.05), indicate significant difference from (STD) diet control. ^# indicates significant treatment effect (P<0.05) relative to vehicle-treated HFD group. […] Glucose tolerance and insulin sensitivity were determined on the last 2 days of treatment, using i.p. glucose tolerance and insulin sensitivity tests.

ZDF rats = experiment: Zucker diabetic fatty (ZDF) rat model of type 2 diabetes; format: in vivo; details: 10 mg/kg/day oral gavage, 7 days
From the text: The Zucker diabetic fatty (ZDF) rat is a commonly used animal model of type 2 diabetes with progressive β-cell loss resulting in extreme hyperglycemia. […] (Jourdan et al, Nature Med 2013, 19-(9):1132-1140).

[1] = system: CCl4-induced liver fibrosis; experiment: CCl4-induced liver fibrosis model in mice; format: in vivo, mouse; details: 10 mg/kg/day orally for 4 weeks
Experimental: CCl4-induced liver fibrosis was generated by intraperitoneal injection of CCL4 (1 ml/kg, diluted 1:10 corn oil), twice weekly for 8 weeks. […] Data represent mean±SEM from 7-8 mice per group.*P<0.05 relative to control. ^#indicates significant treatment effect (P<0.05) relative to CCl4-treated vehicle group.
Fibrosis results from excessive extracellular matrix deposition by myofibroblasts accompanying chronic inflammation and wound healing, and is a key pathogenic process in many organs, including kidneys, lung, and liver.

[2] = In vivo metabolism in mouse, plasma LC-MS/MS; details: 1 h after oral administration at 10 mg/kg in mice
CB1 = CB1 (Mus musculus, UniProt P47746)
Chain of CB1 (P47746 whole entry): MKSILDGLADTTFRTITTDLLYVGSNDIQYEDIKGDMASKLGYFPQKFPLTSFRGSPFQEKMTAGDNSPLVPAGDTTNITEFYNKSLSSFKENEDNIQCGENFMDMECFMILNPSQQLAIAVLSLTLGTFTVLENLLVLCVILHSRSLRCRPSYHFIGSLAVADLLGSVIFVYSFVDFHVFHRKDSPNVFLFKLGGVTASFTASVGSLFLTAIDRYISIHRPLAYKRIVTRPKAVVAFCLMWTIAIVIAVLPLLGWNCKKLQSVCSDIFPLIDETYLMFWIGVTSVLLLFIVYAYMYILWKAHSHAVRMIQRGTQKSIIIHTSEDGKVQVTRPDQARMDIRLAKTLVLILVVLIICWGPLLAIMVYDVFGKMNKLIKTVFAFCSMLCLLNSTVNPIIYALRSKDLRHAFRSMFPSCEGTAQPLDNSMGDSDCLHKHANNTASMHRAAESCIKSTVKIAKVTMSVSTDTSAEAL

[3] = DIO mice, 10 mg/kg/day, 14 days

Cc1c(C(=O)NN2CCCCC2)nn(-c2ccc(Cl)cc2Cl)c1-c1ccc(Cl)cc1 [rimonabant]
effect on AMPK activity (recombinant human AMPK): no effect
effect on AMPK activity (recombinant human AMPK; 1 μM): no effect
anti-fibrotic effect (liver fibrosis): anti-fibrotic effect

C/C(N)=N\C(=N/S(=O)(=O)c1ccc(Cl)cc1)N1CC(c2ccccc2)C(c2ccc(Cl)cc2)=N1 (racemic) [Compound 2, rac-N-(1-aminoethylidene)-3-(4-chlorophenyl)-N-((4-chlorophenyl)sulfonyl)-4-phenyl-4,5-dihydro-1H-pyrazole-1-carboximidamide]
HFD-induced glucose intolerance (DIO mice; [3]): abrogated
body weight (DIO mice; [3]): reduced
food intake (DIO mice; [3]): reduced
hepatic TG (DIO mice; [3]): reduced
hyperinsulinemia (DIO mice; [3]): abrogated
hyperleptinemia (DIO mice; [3]): reduced
insulin resistance (DIO mice; [3]): abrogated
insulin resistance (insulin sensitivity test) (DIO mice; DIO mice, last 2 days of treatment): nearly completely normalized
glucose intolerance (i.p. glucose tolerance test) (DIO mice; DIO mice, last 2 days of treatment, i.p. glucose load 1.5 g/kg): nearly completely normalized
In vivo Comments (DIO mice; mouse, in vivo): -anti- diabetic -anti- obesity
plasma c-peptide (ZDF rats): prevented
plasma insulin (ZDF rats): prevented
blood glucose (ZDF rats; 10 mg/kg/day): prevented the progressive increase
liver fibrosis / collagen deposition by Sirius Red and Masson's trichrome staining [1]: more effective than rimonabant
α-SMA, Procollagen-1 and Fibronectin-1 mRNA [1]: more effective than rimonabant
CCl4-induced increase in immunoreactive iNOS ([1]; liver): attenuated
in vivo metabolism, metabolite generation in plasma [2]: underwent in vivo metabolism to liberate the amidine moiety and a metabolite
Functional GTPγS binding CB1 Emax (CB1): -20 % basal
